Source: patent publication US20230114207A1, “THE COMBINATION OF CYCLIN DEPENDENT KINASE 7 INHIBITOR AND IMMUNOTHERAPY FOR TREATMENT OF CANCER” (Dana-Farber Cancer Institute, Inc., priority 2019, published 2023)

Tested on: intratumoral cell populations, RPP orthotopic mice
Test: Single-cell RNA sequencing of tumor-bearing lungs
Type: in vivo, mouse
Method: To account for interindividual variability, we harvested pooled fresh tumor-bearing lungs from two mice in two independent cohorts of RPP orthotopic mice which were treated with control, YKL-5-124, anti-PD-1 and combination treatment for seven days. Single cell suspensions were achieved as described above and were sorted using DAPI staining. Cells were then resuspended into single cells with 0.4% BSA for 10× genomics processing. Cell suspensions were loaded onto a 10× Genomics Chromium instrument to generate single-cell gel beads in emulsion (GEMs). Approximately 5,000 to 10,000 cells were loaded per channel. scRNA-seq libraries were prepared using the following Single Cell 3′ Reagent Kits: Chromium™ Single Cell 3′ Library & Gel Bead Kit v2 (PN-120237), Single Cell 3′ Chip Kit v2 (PN-120236) and i7 Multiplex Kit (PN-120262) (10× Genomics, Pleasanton, Calif., USA), and following the Single Cell 3′ Reagent Kits v2 User Guide (Manual Part #CG00052 Rev A). Libraries were run on an Illumina HiSeq 4000 system (SY-401-4001, Illumina) as 2×150 paired-end reads, one full lane per sample, for approximately >90% sequencing saturation.
The Cell Ranger Single Cell Software Suite, version 1.3 was used to perform sample de-multiplexing, barcode and UMI processing, and single-cell 3′ gene counting. A detailed description of the pipeline and specific instructions to run it can be found at: https://Support.10×genomics.com/single-cell-gene-expression/software/pipelines/latest/what-is-cell-ranger). A high quality gene expression matrix was created in sequential preprocessing steps as provided in the Seurat (v2.3.4) pipeline. First only genes that were detected in both independent scRNAseq datasets were retained and cells were excluded if respectively more than […] of detected genes were from mitochondrial or ribosomal origin or if less than 500 genes were detected. The count matrix was subsequently log-normalized with a scale-factor of 10000 and the obtained normalized matrix was further corrected by retaining the residuals after regressing out systematic changes due to number of detected UMIs, percent genes from mitochondrial or ribosomal origin.
Cells from both independent datasets were merged together in canonical correlation (CC) space using the intersection of highly variable genes, identified as genes with higher-than-expected variability in consecutive ranked expression bins, from both datasets. The implementation of CC alignment and selection of downstream dimensions to use was performed as described in the Seurat package. Cells were clustered using the Louvain algorithm based on a shared nearest-neighbor network. The final resolution of all subsequent clustering analyses was determined by the biological questions and the need for coarse or fine-grained detail as explored in the subsequent cluster annotation. Clusters were annotated using input from multiple sources, we i) calculated a stromal, cancer and immune score using the estimate (v1.0.13) package in R, ii) identified cluster specific gene expression markers based on gini-scores, iii) created a hierarchical tree based on Pearson correlation scores between clusters to visualize lineage relationships and iv) compared clusters to those of the Immgen database using the SingleR (v0.2.1) package in R. UMAP as implemented by the uwot (v0.0.0.9010) package in R was used to visualize clusters in 2D CC space. Overall this strategy was hierarchically used to assess all cells, cancer cells only, immune cells only and finally T-cells only.
In the first clustering step, several additional analyses were performed to remove dubious or non-reproducible clusters from downstream analyses. To identify contamination of immune cell clusters with cancer cells we performed k-means (2 centers) clustering on all cells on identified and known canonical markers (Epcam, Calca, Stmn1, Ascl1, Krt7, Nfib, Krt8, Krt18) specific to cancer cells. […]

C=CC(=O)Nc1ccc(C(=O)Nc2n[nH]c3c2CN(C(=O)N[C@H](CN(C)C)c2ccccc2)C3(C)C)cc1 [YKL-5-124]
frequencies of total immune cell components (compared with control group): increase | DCs (in comparison to control): increase | myeloid compartments (in comparison to control): higher numbers of monocytes and neutrophils | percentage of total T cells, NK cells and ILC cells (in comparison to control): significant increase | genes within the 'cell-cycle' and 'E2F target' signatures (GSEA) (in vivo): significantly downregulated | immune response signaling ('Interferon gamma response', 'Inflammatory response') (in vivo): triggered robust immune response signaling | cell-cycle state distribution of cancer cells (in vivo, seven days): mainly arrested at G1 phase | percentage of S phase cells (cluster 4, 5 and 6) (in vivo, seven days): significant decrease | c0, c8 and c9 clusters of naive-like CD8^+ T cells (mouse, in vivo): reduction | c4 percentage (mouse, in vivo): slight reduction
